US20230321066A1, “PREVENTATIVE TREATMENT OF MIGRAINE” (priority 2020, published 2023)

Tests used:
[1] = system: episodic and chronic migraine patients; test: BHV3000-305 Phase 2/3 randomized, double-blind, placebo-controlled study of rimegepant in migraine prevention: efficacy; format: in vivo, human
Method: Clinical Trial—BHV3000-305: A Phase 2/3, Randomized, Double-blind, Placebo-controlled Study to Evaluate the Efficacy and Safety of Rimegepant in Migraine Prevention (ClinicalTrials.gov Identifier: NCT03732638).
A phase 2/3 clinical study was conducted with 1629 participants, as follows.
The purpose of this is study is to compare the efficacy of BHV-3000 (rimegepant) to placebo as a preventive treatment for migraine, as measured by the reduction in the number of migraine days per month.
• Study Type: Interventional (Clinical Trial) • Actual Enrollment: 1629 participants • Allocation: Randomized • Intervention Model: Parallel Assignment • Masking: Triple (Participant, Care Provider, Investigator) • Primary Purpose: Prevention • Official Title: A Phase 2/3, Randomized, Double-blind, Placebo-controlled Study to Evaluate the Efficacy and Safety of Rimegepant in Migraine Prevention • Actual Study Start Date: Nov. 14, 2018 • Actual Primary Completion Date: Dec. 10, 2019
Primary Outcome Measures: • 1. Change from baseline in mean number of migraine days per month [Time Frame: Mean number of migraine days per month as assessed over 3 months (12 weeks)] • Change from baseline in mean number of migraine days per month as measured over the 12-week double-blind phase of the study.
Secondary Outcome Measures: • 1. Achievement of at least a 50% reduction from baseline in mean number of moderate to severe monthly migraine days. [Time Frame: baseline to end of Week 12] • Achievement of at least a 50% reduction from baseline in mean number of moderate to severe monthly migraine days over course of the double-blind treatment phase. • 2. The mean number of rescue medication days per month. [Time Frame: baseline to end of week 12 as measure per month] • The mean number of rescue medication days per month over the course of the double-blind, treatment phase. Rescue medications include the rescue medications defined in this protocol. • 3. Adverse events. [Time Frame: baseline to end of Week 12] • Adverse events that occur in at least 5% of treated subjects; the frequency of unique subjects with serious adverse events, adverse events leading to discontinuation and clinically significant laboratory abnormalities, as reported on case report forms. • 4. The frequency of AST or ALT elevations. [Time Frame: baseline to end of Week 12] • The frequency of AST or ALT elevations>3×ULN, concurrently with bilirubin elevations>2×ULN, will be assessed by tabulating the number of unique subjects with this pairing of events. • 5. The frequency of hepatic-related adverse events and hepatic-related treatment. [Time Frame: baseline to end of Week 12] • The frequency of hepatic-related adverse events and hepatic-related treatment discontinuations will be tabulated from case report forms and will be based on unique subjects reporting such events. • 6. The mean change from baseline in the MSQ role function [Time Frame: baseline to end of Week 12] • The mean change from baseline in the MSQ role function—restrictive domain score at Week 12 of the double-blind treatment phase. • 7. The mean change from baseline in the MIDAS total score. [Time Frame: baseline to end of Week 12] • The mean change from baseline in the MIDAS total score at Week 12 of the double-blind treatment phase.
This pivotal study enrolled patients with both episodic and chronic migraine. The study evaluated the efficacy and safety of rimegepant 75 mg (n=370) dosed every other day for the preventive treatment of migraine in patients versus placebo (n=371) who had migraine for at least one year and 4 to 18 moderate to severe migraine attacks per month over three months prior to enrollment. During the one-month observation period, patients experienced on average 10.7 migraine days per month, with 7.4 migraine days of moderate to severe migraine during the same period.

[2] = system: episodic and chronic migraine patients; test: BHV3000-305 study: adverse events and liver safety on double-blind treatment
[3] = system: episodic and chronic migraine patients; conditions: human, in vivo, 12 weeks
[4] = 370 patients who received rimegepant 75 mg every other day
[5] = Severity Mild, treated subjects N = 370
[6] = Severity Moderate or Severe, treated subjects N = 370
[7] = Severity Moderate, treated subjects N = 370
[8] = Severity Total, treated subjects N = 370

Question: How did the “reduction in mean number of migraine days as compared to placebo” value ([1]; (4.9−3.7)/3.7*100, participants not taking concomitant preventive treatment) turn out when `N[C@@H]1c2cccnc2[C@H](OC(=O)N2CCC(n3c(=O)[nH]c4ncccc43)CC2)CC[C@H]1c1cccc(F)c1F` [Rimegepant, [(5S,6S,9R)-5-amino-6-(2,3-difluorophenyl)-6,7,8,9-tetrahydro-5H-cyclohepta[b]pyridin-9-yl] 4-(2-oxo-3H-imidazo[4,5-b]pyridin-1-yl)piperidine-1-carboxylate] was run?
Answer: 32%

Question: And the “Change From OP in Mean Number of Total Migraine Days per Month in First Month, Least-squares mean, Difference (Rimegepant − Placebo)” value ([1]; Evaluable mITT subjects, P-value 0.0013)?
Answer: −0.9

Question: What about the “Change From OP in Mean Number of Total Migraine Days per Month Overall, Least-squares mean, Difference (Rimegepant − Placebo)” value ([1]; Evaluable mITT subjects, P-value 0.0094) of the same compound?
Answer: −0.7

Question: And the “Primary Endpoint: Change From OP in Mean Number of Total Migraine Days per Month in Last Month, Least-squares mean, Difference (Rimegepant − Placebo)” value ([1]; Evaluable mITT subjects, P-value 0.0176, significant in hierarchical testing)?
Answer: −0.8

Question: What about the “MSQoL Restrictive Role Function Domain Score Change From Baseline at Week 12, Least-squares mean, Difference (Rimegepant − Placebo)” value ([1]; Evaluable mITT subjects, P-value 0.0358) of the same compound?
Answer: 3.5

Question: And the “>=50% Reduction From OP in Mean Number of Moderate or Severe Migraine Days per Month in Last Month, Stratified Risk, Difference (Rimegepant − Placebo)” value ([1]; Evaluable mITT subjects, P-value 0.0734)?
Answer: 5.7

Question: What about the “Rescue Medication Days per Month In Last Month, Least-squares mean, Difference (Rimegepant − Placebo)” value ([1]; Evaluable mITT subjects, P-value 0.3868) of the same compound?
Answer: −0.2

Question: And the “MIDAS Total Score Change From Baseline at Week 12, Least-squares mean, Difference (Rimegepant − Placebo)” value ([1]; Evaluable mITT subjects, P-value 0.9616)?
Answer: −0.1

Question: What about the “ALT/AST elevations: relatedness to study drug as judged by independent liver monitoring panel” value [2, 4] of the same compound?
Answer: did not determine any ALT/AST elevations to be in the categories of probably or definitely related to study drug

Question: And the “cases of ALT or AST>3×ULN and bilirubin>2×ULN” value [2, 4]?
Answer: no cases

Question: And the Enterobiasis [2, 5]?
Answer: 0 n

Question: What about the Folliculitis [2, 5] of the same compound?
Answer: 0 n

Question: What about the Oral candidiasis [2, 5] of the same compound?
Answer: 0 n

Question: What about the Orchitis [2, 5] of the same compound?
Answer: 0 n

Question: And the Otitis media [2, 5]?
Answer: 0 n

Question: And the Acute sinusitis [2, 6]?
Answer: 0 n

Question: And the Appendicitis [2, 6]?
Answer: 0 n

Question: What about the Bacterial vaginosis [2, 6] of the same compound?
Answer: 0 n

Question: What about the Herpes zoster [2, 6] of the same compound?
Answer: 0 n

Question: What about the Pharyngitis streptococcal [2, 6] of the same compound?
Answer: 0 n

Question: And the Pneumonia [2, 6]?
Answer: 0 n

Question: What about the Pyelonephritis [2, 6] of the same compound?
Answer: 0 n

Question: And the Sepsis [2, 6]?
Answer: 0 n

Question: And the Acute sinusitis [2, 7]?
Answer: 0 n

Question: And the Appendicitis [2, 7]?
Answer: 0 n

Question: And the Bacterial vaginosis [2, 7]?
Answer: 0 n

Question: And the Herpes zoster [2, 7]?
Answer: 0 n

Question: What about the Pharyngitis streptococcal [2, 7] of the same compound?
Answer: 0 n

Question: What about the Sepsis [2, 7] of the same compound?
Answer: 0 n

Question: What about the Acute sinusitis [2, 8] of the same compound?
Answer: 0 n

Question: And the Appendicitis [2, 8]?
Answer: 0 n

Question: And the Enterobiasis [2, 8]?
Answer: 0 n

Question: What about the Folliculitis [2, 8] of the same compound?
Answer: 0 n

Question: And the Oral candidiasis [2, 8]?
Answer: 0 n

Question: And the Orchitis [2, 8]?
Answer: 0 n

Question: And the Otitis media [2, 8]?
Answer: 0 n

Question: And the Pelvic inflammatory disease [2, 8]?
Answer: 0 n

Question: And the Pharyngitis streptococcal [2, 8]?
Answer: 0 n

Question: And the Pneumonia [2, 8]?
Answer: 0 n

Question: And the Pyelonephritis [2, 8]?
Answer: 0 n

Question: And the Sepsis [2, 8]?
Answer: 0 n

Question: What about the Tooth infection [2, 8] of the same compound?
Answer: 0 n

Question: And the Pertussis [3]?
Answer: 0 n
